Results: US12398154B2, “Azaquinazoline pan-KRas inhibitors” (Mirati Therapeutics, Inc., priority 2020, dated 2025)

Legend:
Experiment in all cases: biochemical
[1] = biological target: KRas G12V (Homo sapiens, UniProt P01116, G12V);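 also: KRas binding measured by TR-FRET displacement at room temperature, IC50 fitted from percent of control values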
Protocol: (§1) The ability of a compound to bind to KRas was measured using a TR-FRET displacement assay. […] After a 60-minute incubation at room temperature, the reaction was measured using a BMG LABTECH CLARIO star Plus via TR-FRET. […] The POC values were fit to a 4-parameter IC50 equation and the IC50 value reported.

[2] = biological target: KRas G12R (Homo sapiens, UniProt P01116, G12R);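 also: TR-FRET displacement assay of compound binding to KRas, read after one hour at room temperature, potency from a four-parameter fit of percent-of-control values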
Protocol: as §1

[3] = biological target: KRas G12D (Homo sapiens, UniProt P01116, G12D);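 also: TR-FRET displacement binding assay on KRas, read after a one-hour incubation at room temperature, IC50 fitted from percent-of-control values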
Sequence of KRas G12D (P01116 1-169 isoform P01116-2 G12D): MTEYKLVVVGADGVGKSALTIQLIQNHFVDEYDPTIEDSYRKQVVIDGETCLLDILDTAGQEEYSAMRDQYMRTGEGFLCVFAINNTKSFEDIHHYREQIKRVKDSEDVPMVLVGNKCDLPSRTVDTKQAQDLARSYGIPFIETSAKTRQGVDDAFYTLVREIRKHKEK
Protocol: as §1

Sequence of KRas G12R (P01116 1-169 isoform P01116-2 G12R): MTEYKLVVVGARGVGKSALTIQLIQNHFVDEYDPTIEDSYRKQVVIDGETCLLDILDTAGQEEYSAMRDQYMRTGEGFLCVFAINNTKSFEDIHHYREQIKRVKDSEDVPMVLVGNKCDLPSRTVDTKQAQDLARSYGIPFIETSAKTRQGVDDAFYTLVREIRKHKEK
Sequence of KRas G12V (P01116 1-169 isoform P01116-2 G12V): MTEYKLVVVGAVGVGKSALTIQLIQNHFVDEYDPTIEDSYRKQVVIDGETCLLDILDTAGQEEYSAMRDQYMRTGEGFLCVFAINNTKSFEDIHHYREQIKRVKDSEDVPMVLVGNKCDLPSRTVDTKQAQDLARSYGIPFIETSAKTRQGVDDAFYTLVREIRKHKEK

| IC50 [1] [µM] | IC50 [2] [µM] | IC50 [3] [µM] | SMILES |
| --- | --- | --- | --- |
| 17 | 27.6 | 11.6 | CC1(O)CCCN(c2nc(OCC34CCCN3CCC4)nc3c(F)c(-c4cccc5scnc45)ncc23)C1 (stereo not drawn) [Example 68, 1-(7-(benzo[d]thiazol-4-yl)-8-fluoro-2-((hexahydro-1H-pyrrolizin-7a-yl)methoxy)pyrido[4,3-d]pyrimidin-4-yl)-3-methylpiperidin-3-ol] |
| 2.73 | 4.17 | 2.09 | CC1(O)CCCN(c2nc(OCC34CCCN3CCC4)nc3c(F)c(-c4cccc5ccccc45)ncc23)C1 (stereo not drawn) [Example 69, 1-(8-fluoro-2-((hexahydro-1H-pyrrolizin-7a-yl)methoxy)-7-(naphthalen-1-yl)pyrido[4,3-d]pyrimidin-4-yl)-3-methylpiperidin-3-ol] |
| 10.8 | 14 | 14 | O=C1NCCC2(CCCN(c3nc(OCC45CCCN4CCC5)nc4c(F)c(-c5cccc6cccc(F)c56)ncc34)C2)N1 (stereo not drawn) [Example 72, 8-(8-fluoro-7-(8-fluoronaphthalen-1-yl)-2-((tetrahydro-1H-pyrrolizin-7a(5H)-yl)methoxy)pyrido[4,3-d]pyrimidin-4-yl)-1,3,8-triazaspiro[5.5]undecan-2-one] |
| 3.15 | 8.87 | 15.5 | OC1CC2CC(C1)N(c1nc(OCC34CCCN3CCC4)nc3c(F)c(-c4cccc5cccc(F)c45)ncc13)C2 (stereo not drawn) [Example 76, 6-(8-fluoro-7-(8-fluoronaphthalen-1-yl)-2-((hexahydro-1H-pyrrolizin-7a-yl)methoxy)pyrido[4,3-d]pyrimidin-4-yl)-6-azabicyclo[3.2.1]octan-3-ol] |
| 0.539 | 0.65 | 15.5 | CN(Cc1cccnc1N)c1nc(OCC23CCCN2CCC3)nc2c(F)c(-c3cccc4cccc(F)c34)ncc12 [Example 79, N-((2-aminopyridin-3-yl)methyl)-8-fluoro-7-(8-fluoronaphthalen-1-yl)-N-methyl-2-((tetrahydro-1H-pyrrolizin-7a(5H)-yl)methoxy)pyrido[4,3-d]pyrimidin-4-amine] |
| 8.1 | 4.19 | 19.7 | Fc1c(-c2cccc3cccc(Cl)c23)ncc2c(N3CCCC(c4c[nH]nn4)C3)nc(OCC34CCCN3CCC4)nc12 (stereo not drawn) [Example 108, 4-(3-(1H-1,2,3-triazol-4-yl)piperidin-1-yl)-7-(8-chloronaphthalen-1-yl)-8-fluoro-2-((tetrahydro-1H-pyrrolizin-7a(5H)-yl)methoxy)pyrido[4,3-d]pyrimidine] |
| 0.008 | 0.009 | 0.012 | CC1(O)CCCN(c2nc(OCC34CCCN3CCC4)nc3c(F)c(-c4cc(O)cc5ccccc45)ncc23)C1 (stereo not drawn) [Example 151] |
| 0.014 | 0.017 | 0.095 | CCc1c(F)ccc2cc(O)cc(-c3ncc4c(N(C)Cc5cn[nH]c5)nc(OC[C@@]56CCCN5C[C@H](F)C6)nc4c3F)c12 [Example 163, 4-(4-(((1H-pyrazol-4-yl)methyl)(methyl)amino)-8-fluoro-2-(((2R,7aS)-2-fluorohexahydro-1H-pyrrolizin-7a-yl)methoxy)pyrido[4,3-d]pyrimidin-7-yl)-5-ethyl-6-fluoronaphthalen-2-ol] |
| 4.91 | 1.71 | 16.6 | CN1CCC[C@H]1COc1nc(N2CCOCC2)c2cnc(-c3cc(O)cc4ccccc34)c(F)c2n1 [Example 195, (S)-4-(8-fluoro-2-((1-methylpyrrolidin-2-yl)methoxy)-4-morpholinopyrido[4,3-d]pyrimidin-7-yl)naphthalen-2-ol] |
| 14.1 | 51.9 | 6.07 | CN(CCC(N)=O)c1nc(OCC23CCCN2CCC3)nc2c(F)c(-c3cccc4cccc(F)c34)ncc12 [Example 226, 3-((8-fluoro-7-(8-fluoronaphthalen-1-yl)-2-((hexahydro-1H-pyrrolizin-7a-yl)methoxy)pyrido[4,3-d]pyrimidin-4-yl)(methyl)amino)propanamide] |
| 19.3 | 9.18 | ≥ 100 | Nc1n[nH]c(CCNc2nc(OCC34CCCN3CCC4)nc3c(F)c(-c4cccc5cccc(F)c45)ncc23)n1 [Example 238, N-(2-(3-amino-1H-1,2,4-triazol-5-yl)ethyl)-8-fluoro-7-(8-fluoronaphthalen-1-yl)-2-((hexahydro-1H-pyrrolizin-7a-yl)methoxy)pyrido[4,3-d]pyrimidin-4-amine] |
| 13.6 | 8.62 | 17.2 | NC(=O)NC1CCCN(c2nc(OCC34CCCN3CCC4)nc3c(F)c(-c4cccc5cccc(F)c45)ncc23)C1 (stereo not drawn) [Example 241, 1-(1-(8-fluoro-7-(8-fluoronaphthalen-1-yl)-2-((hexahydro-1H-pyrrolizin-7a-yl)methoxy)pyrido[4,3-d]pyrimidin-4-yl)piperidin-3-yl)urea] |
| 11.7 | 9.83 | 2.99 | Fc1c(-c2cccc3cccc(F)c23)ncc2c(N3CCCn4nccc4C3)nc(OCC34CCCN3CCC4)nc12 [Example 245, 4-(7,8-dihydro-4H-pyrazolo[1,5-a][1,4]diazepin-5(6H)-yl)-8-fluoro-7-(8-fluoronaphthalen-1-yl)-2-((hexahydro-1H-pyrrolizin-7a-yl)methoxy)pyrido[4,3-d]pyrimidine] |
| 22.1 | 11.3 | 6.41 | Fc1c(-c2cccc3cccc(F)c23)ncc2c(N3CCCc4ncccc4C3)nc(OCC34CCCN3CCC4)nc12 [Example 246, 6-(8-fluoro-7-(8-fluoronaphthalen-1-yl)-2-((hexahydro-1H-pyrrolizin-7a-yl)methoxy)pyrido[4,3-d]pyrimidin-4-yl)-6,7,8,9-tetrahydro-5H-pyrido[3,2-c]azepine] |
| 9.78 | 10.5 | 6.81 | NS(=O)(=O)OC1CCCN(c2nc(OCC34CCCN3CCC4)nc3c(F)c(-c4cccc5cccc(F)c45)ncc23)C1 (stereo not drawn) [Example 248, 1-(8-fluoro-7-(8-fluoronaphthalen-1-yl)-2-((tetrahydro-1H-pyrrolizin-7a(5H)-yl)methoxy)pyrido[4,3-d]pyrimidin-4-yl)piperidin-3-yl sulfamate] |
| 10.8 | 7.91 | 2.84 | Cc1cc2n(n1)CCCN(c1nc(OCC34CCCN3CCC4)nc3c(F)c(-c4cccc5cccc(F)c45)ncc13)C2 [Example 254, 8-fluoro-7-(8-fluoronaphthalen-1-yl)-2-((hexahydro-1H-pyrrolizin-7a-yl)methoxy)-4-(2-methyl-7,8-dihydro-4H-pyrazolo[1,5-a][1,4]diazepin-5(6H)-yl)pyrido[4,3-d]pyrimidine] |
| 11 | 15.1 | 6.23 | OC1CN(c2nc(OCC34CCCN3CCC4)nc3c(F)c(-c4cccc5cccc(F)c45)ncc23)Cc2ccnn2C1 (stereo not drawn) [Example 255, 5-(8-fluoro-7-(8-fluoronaphthalen-1-yl)-2-((hexahydro-1H-pyrrolizin-7a-yl)methoxy)pyrido[4,3-d]pyrimidin-4-yl)-5,6,7,8-tetrahydro-4H-pyrazolo[1,5-a][1,4]diazepin-7-ol] |
| 13.6 | 9.86 | 8.16 | CN(C)c1cc2n(n1)CCCN(c1nc(OCC34CCCN3CCC4)nc3c(F)c(-c4cccc5cccc(F)c45)ncc13)C2 [Example 264, 5-(8-fluoro-7-(8-fluoronaphthalen-1-yl)-2-((hexahydro-1H-pyrrolizin-7a-yl)methoxy)pyrido[4,3-d]pyrimidin-4-yl)-N,N-dimethyl-5,6,7,8-tetrahydro-4H-pyrazolo[1,5-a][1,4]diazepin-2-amine] |
| 5.25 | 13.9 | 6.06 | O=C1CC2(CCCCN(c3nc(OCC45CCCN4CCC5)nc4c(F)c(-c5cccc6cccc(F)c56)ncc34)C2)N1 (stereo not drawn) [Example 266, 6-(8-fluoro-7-(8-fluoronaphthalen-1-yl)-2-((hexahydro-1H-pyrrolizin-7a-yl)methoxy)pyrido[4,3-d]pyrimidin-4-yl)-1,6-diazaspiro[3.6]decan-2-one] |
| 6.44 | 8.88 | 11.3 | OC[C@@H]1CCCN(c2nc(OCC34CCCN3CCC4)nc3c(F)c(-c4cccc5cccc(F)c45)ncc23)C1 [Example 268, (R)-(1-(8-fluoro-7-(8-fluoronaphthalen-1-yl)-2-((hexahydro-1H-pyrrolizin-7a-yl)methoxy)pyrido[4,3-d]pyrimidin-4-yl)piperidin-3-yl)methanol] |
| 3.39 | 3.62 | 34.3 | O=S1(=O)CCC(Nc2nc(OCC34CCCN3CCC4)nc3c(F)c(-c4cccc5cccc(F)c45)ncc23)C1 (stereo not drawn) [Example 279, 3-((8-fluoro-7-(8-fluoronaphthalen-1-yl)-2-((hexahydro-1H-pyrrolizin-7a-yl)methoxy)pyrido[4,3-d]pyrimidin-4-yl)amino)tetrahydrothiophene 1,1-dioxide] |
| 0.699 | 0.738 | 1.48 | CCc1cccc2cccc(-c3ncc4c(N5CCCOCC5)nc(OCC56CCCN5CCC6)nc4c3F)c12 [Example 334, 4-(7-(8-ethylnaphthalen-1-yl)-8-fluoro-2-((hexahydro-1H-pyrrolizin-7a-yl)methoxy)pyrido[4,3-d]pyrimidin-4-yl)-1,4-oxazepane] |
| ≥ 100 | 84.5 | 7.83 | O=C1CC2CCN(c3nc(OCC45CCCN4CCC5)nc4c(F)c(-c5cccc6cccc(F)c56)ncc34)CC2C(=O)N1 (stereo not drawn) [Example 335, 7-(8-fluoro-7-(8-fluoronaphthalen-1-yl)-2-((hexahydro-1H-pyrrolizin-7a-yl)methoxy)pyrido[4,3-d]pyrimidin-4-yl)hexahydro-2,7-naphthyridine-1,3(2H,4H)-dione] |
| 0.008 | 0.009 | 0.044 | CCc1c(F)ccc2cc(O)cc(-c3ncc4c(NCCC5CCNC5=O)nc(OC[C@@]56CCCN5C[C@H](F)C6)nc4c3F)c12 (stereo partly drawn) [Example 375, 3-(2-((7-(8-ethyl-7-fluoro-3-hydroxynaphthalen-1-yl)-8-fluoro-2-(((2R,7aS)-2-fluorohexahydro-1H-pyrrolizin-7a-yl)methoxy)pyrido[4,3-d]pyrimidin-4-yl)amino)ethyl)pyrrolidin-2-one] |
